Where two headings read alike, the source gives them in different places.
Legend:
[1] = system: hepG2 cells; test: CCK8 cell viability assay, hepG2; assay type: cell-based, human
Procedure: (§1) This study aimed to assess the anti-proliferative activity of dolutegravir-1,2,3-triazole derivatives on hepatocellular carcinoma cell lines, Huh7 and hepG2. A comprehensive CCK8 assay was employed to evaluate the impact of these compounds on cell viability, with cells treated at a concentration of 20 μM for 48 h. HRM cells, a normal cell line, were included as a control for comparative analysis.
(§2) Human hepatocellular carcinoma cell lines Huh7 and hepG2 were obtained from ATCC (Manassas, VA, USA). Cells were cultured in DMEM or RPMI 1640 medium containing 10% FBS and 1% penicillin/streptomycin at 37 °C with a 5% CO2-humidified atmosphere.
(§3) CCK8 assay was used to measure cell viability. Cells with a density of 1 × 10^4 cells/well were seeded on 96-well plates. After adhesion, cells were treated with different diluted compounds or vehicle control DMSO and continued to be cultured for 48 h or 72 h, respectively. Then, CCK8 reagent was added for one hour incubation at 37 °C with 5% CO2. Absorbance was measured using a Microplate spectrophotometer (Thermo, Waltham, MA, USA) at 450 nm. The ratio of cell viability of control was taken as 100%. […] Then, IC50 of compounds were investigated using the prism statistical software 7.0.

[2] = system: HRM cells (human renal mesangial cells); test: in vitro; assay type: cell-based; conditions: 20 µM
Procedure: as §1, with “analysis. […]” for “analysis.”
as §3

[3] = system: Huh7 cells; test: CCK8 cell viability assay, Huh7; assay type: cell-based, human; conditions: for IC50: Huh7, CCK8, read-out: half maximal inhibitory concentration (IC50), Huh7
Procedure: as §1, §2, §3

[4] = dose 27 times greater than the clinical dose, preclinical study; cited from earlier work
[5] = in vitro; assay type: cell-based, human; conditions: human
Procedure: as §1, with “analysis. […]” for “analysis.”
as §3

[6] = 20 μM, hepG2, CCK8, control taken as 100%
[7] = 48 h, hepG2, CCK8, read-out: half maximal inhibitory concentration (IC50), hepG2
[8] = 20 μM, Huh7, CCK8, control taken as 100%

COc1c2n(cc(C(=O)Nc3cccc(-c4cn(-c5cc(C(F)(F)F)ccc5C(F)(F)F)nn4)c3)c1=O)CC1OCCC(C)N1C2=O (centres unmarked) [Compound 5q]
Cell Viability (100%), 20 μM, 48 h, hepG2 [1, 6]: 38.49%
IC50 [1, 7]: 18.5 ± 2.85 µM
Cell Viability (100%), 20 μM, 48 h, HRM [2]: 91.40%
Cell Viability (100%), 20 μM, 48 h, Huh7 [3, 8]: 12.00%
IC50 ([3]; 48 h): 7.85 ± 0.9 µM

COc1ccccc1-n1cc(-c2cccc(NC(=O)c3cn4c(c(OC)c3=O)C(=O)N3C(C)CCOC3C4)c2)nn1 (centres unmarked) [Compound 5t]
Cell Viability (100%), 20 μM, 48 h, hepG2 [1, 6]: 41.93%
IC50 [1, 7]: 11.2 ± 0.32 µM
Cell Viability (100%), 20 μM, 48 h, HRM [2]: 73.24%
Cell Viability (100%), 20 μM, 48 h, Huh7 [3, 8]: 29.33%
IC50 ([3]; 48 h): 10.8 ± 0.85 µM

COc1c2n(cc(C(=O)Nc3cccc(-c4cn(-c5ccccc5OC(F)(F)F)nn4)c3)c1=O)CC1OCCC(C)N1C2=O (centres unmarked) [Compound 5i]
Cell Viability (100%), 20 μM, 48 h, hepG2 [1, 6]: 24.84%
IC50 [1, 7]: 9.43 ± 0.7 µM
Cell Viability (100%), 20 μM, 48 h, HRM [2]: 70.03%
Cell Viability (100%), 20 μM, 48 h, Huh7 [3, 8]: 7.95%
IC50 ([3]; 48 h): 12.3 ± 0.26 µM

C[C@@H]1CCO[C@H]2Cn3cc(C(=O)NCc4ccc(F)cc4F)c(=O)c(O)c3C(=O)N12 [DTG, Dolutegravir]
fertility and teratogenic toxicity [4]: no obvious fertility toxicity or teratogenic toxicity
IC50 ([1]; Homo sapiens, HepG2, 48 h, hepG2, CCK8, read-out: half maximal inhibitory concentration (IC50), hepG2): > 50 µM
viability at 20 µM ([1]; Homo sapiens, 20 μM, 48 h, hepG2, CCK8, control taken as 100%): 82.6%
viability at 48 h, 20 µM [5]: 99.6%
viability at 20 µM ([3]; Homo sapiens, Huh-7, 20 μM, 48 h, Huh7, CCK8, control taken as 100%): 96.9%
IC50 ([3]; Homo sapiens, Huh-7, 48 h): > 50 µM

COc1c2n(cc(C(=O)Nc3cccc(-c4cn(-c5ccccc5Br)nn4)c3)c1=O)CC1OCCC(C)N1C2=O (centres unmarked) [Compound 5u]
Cell Viability (100%), 20 μM, 48 h, hepG2 [1, 6]: 47.16%
IC50 [1, 7]: 34.7 ± 5.13 µM
Cell Viability (100%), 20 μM, 48 h, HRM [2]: 100.10%
Cell Viability (100%), 20 μM, 48 h, Huh7 [3, 8]: 33.46%
IC50 ([3]; 48 h): 12.6 ± 0.58 µM
